From publication PMC9022596, “Convergent Evolution of Antibiotic Tolerance in Patients with Persistent Methicillin-Resistant Staphylococcus aureus Bacteremia” (Infection and Immunity, 2022)

Assays:
Assay in all cases: microbe, parasite or virus in culture
Set-up in all cases: Broth microdilution MIC in cation-adjusted MHB-Ca2+, growth inhibition per EUCAST reading
[1] = system: T1, Staphylococcus aureus PB0412; settings: PB0412, 16 h
T1 construct: PB0412
Protocol: (§1) MICs were measured in cation-adjusted Mueller-Hinton broth (MHB) supplemented with 50 μg/mL CaCl2 (MHB-Ca^2+) via broth microdilution in 96-well plates with an inoculum of ∼5 × 10^5 CFU per mL. Antibiotic test concentrations ranged from 0.0625 μg/mL to 32 μg/mL by 2-fold dilutions. Plates were incubated at 37°C for 16 h without shaking, and results were interpreted in accordance with European Committee on Antimicrobial Susceptibility Testing reading guidelines ([72]). S. aureus ATCC 29213 was used as a quality-control strain. TCA cycle defects have been shown previously to cause antibiotic tolerance in laboratory strains of methicillin-sensitive S. aureus (MSSA) ([13], [16]). […] To test this hypothesis, we complemented three of the clinical isolates harboring loss-of-function citZ mutations with either wild-type citZ (pOS1-citZ) or empty vector (pOS1) and then measured bacterial survival through time after exposure to ceftaroline, daptomycin, vancomycin, or the combination of daptomycin plus ceftaroline (Fig. 3). These antibiotics were chosen for their clinical relevance in the treatment of severe MRSA infection.

[2] = system: T2, Staphylococcus aureus PB0115; settings: PB0115, 16 h
T2 construct: PB0115
Protocol: as §1

[3] = system: T3, Staphylococcus aureus PB0601; settings: PB0601, 16 h
T3 construct: PB0601
Protocol: as §1

[4] = system: T4, Staphylococcus aureus PB1505; settings: PB1505, 16 h
T4 construct: PB1505
Protocol: as §1

[5] = system: T5, Staphylococcus aureus PB1407; settings: PB1407, 16 h
T5 construct: PB1407
Protocol: as §1

[6] = system: T6, Staphylococcus aureus PB0609; settings: PB0609, 16 h
T6 construct: PB0609
Protocol: as §1

[7] = system: T7, Staphylococcus aureus PB0803; settings: PB0803, 16 h
T7 construct: PB0803
Protocol: as §1

[8] = system: T8, Staphylococcus aureus PB0905; settings: PB0905, 16 h
T8 construct: PB0905
Protocol: as §1

[9] = system: T9, Staphylococcus aureus PB1801; settings: PB1801, 16 h
T9 construct: PB1801
Protocol: as §1

[10] = system: T10, Staphylococcus aureus PB0112; settings: PB0112, 16 h
T10 construct: PB0112
Protocol: as §1

[11] = system: T11, Staphylococcus aureus PB0704; settings: PB0704, 16 h
T11 construct: PB0704
Protocol: as §1

[12] = system: T12, Staphylococcus aureus PB1408; settings: PB1408, 16 h
T12 construct: PB1408
Protocol: as §1

[13] = system: T13, Staphylococcus aureus PB0801; settings: PB0801, 16 h
T13 construct: PB0801
Protocol: as §1

[14] = system: T14, Staphylococcus aureus PB0113; settings: PB0113, 16 h
T14 construct: PB0113
Protocol: as §1

[15] = system: T15, Staphylococcus aureus PB0203; settings: PB0203, 16 h
T15 construct: PB0203
Protocol: as §1

[16] = system: T16, Staphylococcus aureus PB1103; settings: PB1103, 16 h
T16 construct: PB1103
Protocol: as §1

[17] = system: T17, Staphylococcus aureus PB0605; settings: PB0605, 16 h
T17 construct: PB0605
Protocol: as §1

[18] = system: T18, Staphylococcus aureus PB1509; settings: PB1509, 16 h
T18 construct: PB1509
Protocol: as §1

Row | SMILES | MIC ([1]; replicate 1) [µg/mL] | MIC ([1]; replicate 2) [µg/mL] | MIC ([2]; replicate 1) [µg/mL] | MIC ([2]; replicate 2) [µg/mL] | MIC ([3]; replicate 1) [µg/mL] | MIC ([3]; replicate 2) [µg/mL] | MIC ([4]; replicate 1) [µg/mL] | MIC ([4]; replicate 2) [µg/mL] | MIC ([5]; replicate 1) [µg/mL] | MIC ([5]; replicate 2) [µg/mL] | MIC ([6]; replicate 1) [µg/mL] | MIC ([6]; replicate 2) [µg/mL] | MIC ([7]; replicate 1) [µg/mL] | MIC ([7]; replicate 2) [µg/mL] | MIC ([8]; replicate 1) [µg/mL] | MIC ([8]; replicate 2) [µg/mL] | MIC ([9]; replicate 1) [µg/mL] | MIC ([9]; replicate 2) [µg/mL] | MIC ([10]; replicate 1) [µg/mL] | MIC ([10]; replicate 2) [µg/mL] | further results
1 | CCO/N=C(\C(=O)N[C@@H]1C(=O)N2C(C(=O)[O-])=C(Sc3nc(-c4cc[n+](C)cc4)cs3)CS[C@H]12)c1nsc(N)n1 [Ceftaroline] | 0.5 | 0.5 | 0.5 | 0.5 | 0.25 | 0.25 | 0.5 | 0.5 | 0.5 | 0.5 | 0.25 | 0.25 | 0.5 | 0.5 | 0.5 | 0.5 | 0.5 | 0.5 | 0.5 | 0.5 | MIC ([11]; replicate 1): 0.25 µg/mL; MIC ([11]; replicate 2): 0.25 µg/mL; MIC ([12]; replicate 1): 0.5 µg/mL; MIC ([12]; replicate 2): 0.5 µg/mL; MIC ([13]; replicate 1): 0.5 µg/mL; MIC ([13]; replicate 2): 0.5 µg/mL; MIC ([14]; replicate 1): 0.5 µg/mL; MIC ([14]; replicate 2): 0.5 µg/mL; MIC ([15]; replicate 1): 0.5 µg/mL; MIC ([15]; replicate 2): 0.5 µg/mL; MIC ([16]; replicate 1): 0.5 µg/mL; MIC ([16]; replicate 2): 0.5 µg/mL; MIC ([17]; replicate 1): 0.25 µg/mL; MIC ([17]; replicate 2): 0.25 µg/mL; MIC ([18]; replicate 1): 0.5 µg/mL; MIC ([18]; replicate 2): 0.5 µg/mL
2 | CCCCCCCCCC(=O)N[C@@H](Cc1c[nH]c2ccccc12)C(=O)N[C@H](CC(N)=O)C(=O)N[C@@H](CC(=O)O)C(=O)N[C@@H]1C(=O)NCC(=O)N[C@@H](CCCN)C(=O)N[C@@H](CC(=O)O)C(=O)N[C@H](C)C(=O)N[C@@H](CC(=O)O)C(=O)NCC(=O)N[C@H](CO)C(=O)N[C@@H]([C@H](C)CC(=O)O)C(=O)N[C@@H](CC(=O)c2ccccc2N)C(=O)O[C@@H]1C [Daptomycin] | 2 | 2 | 2 | 2 | 1 | 1 | 1 | 2 | 2 | 2 | 1 | 1 | 2 | 2 | 2 | 2 | 2 | 2 | 1 | 1 | MIC ([11]; replicate 1): 1 µg/mL; MIC ([11]; replicate 2): 1 µg/mL; MIC ([12]; replicate 1): 2 µg/mL; MIC ([12]; replicate 2): 2 µg/mL; MIC ([13]; replicate 1): 1 µg/mL; MIC ([13]; replicate 2): 1 µg/mL; MIC ([14]; replicate 1): 1 µg/mL; MIC ([14]; replicate 2): 1 µg/mL; MIC ([15]; replicate 1): 1 µg/mL; MIC ([15]; replicate 2): 1 µg/mL; MIC ([16]; replicate 1): 1 µg/mL; MIC ([16]; replicate 2): 1 µg/mL; MIC ([17]; replicate 1): 1 µg/mL; MIC ([17]; replicate 2): 2 µg/mL; MIC ([18]; replicate 1): 2 µg/mL; MIC ([18]; replicate 2): 2 µg/mL
3 | CC(=O)NC[C@H]1CN(c2ccc(N3CCOCC3)c(F)c2)C(=O)O1 [Linezolid] | 4 | 4 | 4 | 4 | 4 | 4 | 4 | 4 | 4 | 4 | 4 | 4 | 4 | 4 | 4 | 4 | 4 | 4 | 4 | 4 | MIC ([11]; replicate 1): 4 µg/mL; MIC ([11]; replicate 2): 4 µg/mL; MIC ([12]; replicate 1): 4 µg/mL; MIC ([12]; replicate 2): 4 µg/mL; MIC ([13]; replicate 1): 4 µg/mL; MIC ([13]; replicate 2): 4 µg/mL; MIC ([14]; replicate 1): 4 µg/mL; MIC ([14]; replicate 2): 4 µg/mL; MIC ([15]; replicate 1): 4 µg/mL; MIC ([15]; replicate 2): 4 µg/mL; MIC ([16]; replicate 1): 4 µg/mL; MIC ([16]; replicate 2): 4 µg/mL; MIC ([17]; replicate 1): 4 µg/mL; MIC ([17]; replicate 2): 4 µg/mL; MIC ([18]; replicate 1): 4 µg/mL; MIC ([18]; replicate 2): 4 µg/mL
4 | CN[C@H](CC(C)C)C(=O)N[C@H]1C(=O)N[C@@H](CC(N)=O)C(=O)N[C@H]2C(=O)N[C@H]3C(=O)N[C@H](C(=O)N[C@H](C(=O)O)c4cc(O)cc(O)c4-c4cc3ccc4O)[C@H](O)c3ccc(c(Cl)c3)Oc3cc2cc(c3O[C@@H]2O[C@H](CO)[C@@H](O)[C@H](O)[C@H]2O[C@H]2C[C@](C)(N)[C@H](O)[C@H](C)O2)Oc2ccc(cc2Cl)[C@H]1O [Vancomycin] | 2 | 2 | 2 | 2 | 2 | 2 | 2 | 2 | 2 | 2 | 2 | 4 | 2 | 2 | 2 | 2 | 2 | 2 | 2 | 2 | MIC ([11]; replicate 1): 2 µg/mL; MIC ([11]; replicate 2): 2 µg/mL; MIC ([12]; replicate 1): 4 µg/mL; MIC ([12]; replicate 2): 4 µg/mL; MIC ([13]; replicate 1): 2 µg/mL; MIC ([13]; replicate 2): 2 µg/mL; MIC ([14]; replicate 1): 2 µg/mL; MIC ([14]; replicate 2): 2 µg/mL; MIC ([15]; replicate 1): 2 µg/mL; MIC ([15]; replicate 2): 2 µg/mL; MIC ([16]; replicate 1): 2 µg/mL; MIC ([16]; replicate 2): 2 µg/mL; MIC ([17]; replicate 1): 2 µg/mL; MIC ([17]; replicate 2): 2 µg/mL; MIC ([18]; replicate 1): 2 µg/mL; MIC ([18]; replicate 2): 2 µg/mL
